Experiments:
Format in all cases: cell-based, human
[1] = tested on: GLP-1R mutants of L172, C174, N177, Y250 and M340; test: cAMP accumulation assay, mutants of functional residues except F169; settings: mutants of six functional residues except F169; four independent experiments
Source text: The cDNA of human GLP-1R was cloned into vector pcDNA 3.1 or pRK. In the cAMP assay, the GLP-1R sequence comprises the native signal peptide (residues 1–23) and a FLAG tag. In flow cytometry analysis, the GLP-1R sequence contains the same native signal peptide, followed by a FLAG or HA tag. Mutations or deletions for the cAMP assay and flow cytometry were generated using seamless cloning with KOD-Plus-Neo (TOYOBO) and confirmed by DNA sequencing.
After overnight of culture, specified amounts of wild-type or mutant GLP-1R and 0.5 μg of pGloSensor cAMP plasmid were cotransfected into HEK-293T cells using calcium phosphate. After 24 h of culture, the transfected cells were seeded into 384-well plates (12 000 cells per well). cAMP accumulation was measured using the GloSensor cAMP assay kit (Promega) according to the manufacturer’s instructions. In brief, transfected cells were incubated for 30 min in GloSensor cAMP reagent at 37 °C and room temperature.
(§1) Significant difference is accepted at p < 0.05.

[2] = tested on: GLP-1R-mediated Gs activation, Gαs truncation of residues 2-8; test: G protein activation assay (BRET2 TRUPATH), Gαs truncated 2-8; settings: Gαs truncation of residues 2-8, vs WT, HEK-293T
Method: (§2) Cells were treated with 20 μL of each compound.
as §1

GLP-1R alanine mutants = test: cAMP accumulation assay (GloSensor), alanine scan of 37 GLP-1R residues
GLP-1R R344A = test: cAMP accumulation assay (GloSensor)
[3] = tested on: GLP-1R-mediated Gs activation, Gαs truncation of residues 2-10; test: G protein activation assay (BRET2 TRUPATH), Gαs truncated 2-10; settings: Gαs truncation of residues 2-10, vs WT, HEK-293T
Method: as §2, §1

[4] = tested on: GLP-1R-mediated Gs activation, Gαs L394 and L393 substituted; test: G protein activation assay (BRET2 TRUPATH), Gαs double mutant L393 and L394; settings: Gαs L394 and L393 both substituted, vs WT; HEK-293T
Method: as §2, §1

[5] = tested on: GLP-1R-mediated Gs activation, Gαs alanine mutants; test: G protein activation assay (BRET2 TRUPATH), alanine scan of 41 Gαs residues; settings: 16 of 41 Gαs alanine mutants, vs WT
Method: as §2, §1

[6] = tested on: GLP-1R-mediated Gs activation, Gαs L394 to alanine; test: G protein activation assay (BRET2 TRUPATH), Gαs mutant L394 to alanine; settings: Gαs L394 replaced by alanine, vs WT; HEK-293T
Method: as §2, §1

GLP-1R Y250 = test: G protein activation assay (BRET2 TRUPATH); settings: agonist GLP-1, HEK-293T, s.d.
Method: as §2, §1

GLP-1R F169 = test: G protein activation assay (BRET2 TRUPATH); settings: agonist GLP-1, HEK-293T, s.d.
Method: as §2, §1

## exendin-4: another peptide agonist (exendin-4)
[1]
  cAMP signaling vs WT: attenuated cAMP signaling

## CC[C@H](C)[C@H](NC(=O)[C@H](Cc1ccccc1)NC(=O)[C@H](CCC(=O)O)NC(=O)[C@H](CCCCN)NC(=O)[C@H](C)NC(=O)[C@H](C)NC(=O)[C@H](CCC(N)=O)NC(=O)CNC(=O)[C@H](CCC(=O)O)NC(=O)[C@H](CC(C)C)NC(=O)[C@H](Cc1ccc(O)cc1)NC(=O)[C@H](CO)NC(=O)[C@H](CO)NC(=O)[C@@H](NC(=O)[C@H](CC(=O)O)NC(=O)[C@H](CO)NC(=O)[C@@H](NC(=O)[C@H](Cc1ccccc1)NC(=O)[C@@H](NC(=O)CNC(=O)[C@H](CCC(=O)O)NC(=O)[C@H](C)NC(=O)[C@@H](N)Cc1c[nH]cn1)[C@@H](C)O)[C@@H](C)O)C(C)C)C(=O)N[C@@H](C)C(=O)N[C@@H](Cc1c[nH]c2ccccc12)C(=O)N[C@@H](CC(C)C)C(=O)N[C@H](C(=O)N[C@@H](CCCCN)C(=O)NCC(=O)N[C@@H](CCCNC(=N)N)C(N)=O)C(C)C [GLP-1]
[2]
  Gs protein activation mediated by GLP-1R: significantly attenuated the Gs protein activation
GLP-1R alanine mutants; 18 of 37 GLP-1R alanine mutants, vs WT
  GLP-1 potency in cAMP signaling induction: significant reduction of GLP-1 potency in cAMP signaling induction for 18 mutants
GLP-1R alanine mutants; two mutants with abnormal expression (gray columns in Figure 5b)
  GLP-1 efficacy (cAMP): deficient GLP-1 efficacy
GLP-1R R344A; agonist GLP-1, HEK-293T, 15 min, 25 °C, surface expression 31±4.03 % WT
  EC50: 0.0865 ± 0.0099 nM
GLP-1R R344A; agonist GLP-1, cAMP accumulation, HEK-293T
  Emax: 80±4 WT %
[3]
  Gs protein activation mediated by GLP-1R: significantly attenuated the Gs protein activation
[4]
  GLP-1 activity in G protein dissociation: completely abolished the GLP-1 activity
[5]
  GLP-1 efficacy in Gs activation: significant reduction of GLP-1 efficacy in Gs activation for 16 mutants
[6]
  GLP-1 efficacy in inducing G protein dissociation: decrease in GLP-1 efficacy
GLP-1R Y250
  Emax: 13.84±2.59 % WT
GLP-1R F169
  Emax: 101.04±3.59 % WT

## N#Cc1ccc(COc2cccc(C3CCN(Cc4nc5ccc(C(=O)O)cc5n4C[C@@H]4CCO4)CC3)n2)c(F)c1 [PF 06882961]
[1]
  cAMP signaling vs WT: attenuated cAMP signaling
